Reference: US8618082B2, “Lupeol anti-tumor agent and uses thereof” (Wisconsin Alumni Research Foundation, priority 2004, dated 2013)
“Also recorded” adds a separate entry of the source.

Tests used:
epidermal ODC protein = assay: TPA-induced epidermal ODC protein expression (western blot); type: in vivo, mouse
Description: (§1) FIG. 4. Inhibitory effect of Lupeol on TPA-induced epidermal ODC, iNOS and COX-2 protein expression in CD-1 mice: At different times after treatment, the animals were sacrificed, epidermal protein lysate was prepared, and ODC and COX-2 protein expression were determined. Equal loading of protein was confirmed by stripping the immunoblot and reprobing it for β-actin. The immunoblots shown here are representative of three independent experiments with similar results. The values above each lane indicate relative density of the band normalized to β-actin.
The animals were shaved on the dorsal side of the skin, divided into four groups and treated topically on the shaved area with either 0.4 ml vehicle (acetone), or TPA (3.2 nmol/0.4 ml acetone/animal, v/v), or Lupeol (1 or 2 mg/0.2 ml acetone/animal, w/v) followed 30 min later with TPA (3.2 nmol/0.2 ml acetone/animal). Animals were sacrificed at different times point i.e. 6, 12, 24 and 48 h post TPA treatment. […]
(§2) Epidermis from the whole skin was separated as described earlier (Katiyar et al., 1999) and was homogenized in ice-cold lysis buffer [50 mM Tris-HCl, 150 mM NaCl, 1 mM EGTA, 1 mM EDTA, 20 mM NaF, 100 mM Na3VO4, 0.5% NP-40, 1% Triton X-100, 1 mM PMSF (pH 7.4)] with freshly added protease inhibitor cocktail, Protease Inhibitor Cocktail Set III (Calbiochem, La Jolla, Calif., USA). […] The protein content in the lysates was measured by DC BioRad assay (BioRad Laboratories, Hercules, Calif.) as per the manufacturer's protocol.
(§3) For western blot analysis, 40 μg of the protein was resolved over 8-12% polyacrylamide gels and transferred to a nitrocellulose membrane. […] This was followed by incubation with anti-mouse or anti-rabbit secondary antibody horse-radish peroxidase (Amersham Life Sciences, Inc., USA) for 1 h and then washed several times and detected by chemiluminescence ECL kit, (Amersham Life Sciences, Inc., USA) and autoradiography using XAR-5 film obtained from Eastman Kodak Co. (Rochester, N.Y., USA). […]

epidermal COX-2 protein = assay: TPA-induced epidermal COX-2 protein expression (western blot); type: in vivo, mouse
Description: as §1
The animals were shaved on the dorsal side of the skin, divided into four groups and treated topically on the shaved area with either 0.4 ml vehicle (acetone), or TPA (3.2 nmol/0.4 ml acetone/animal, v/v), or Lupeol (1 or 2 mg/0.2 ml acetone/animal, w/v) followed 30 min later with TPA (3.2 nmol/0.2 ml acetone/animal). Animals were sacrificed at different times point i.e. 6, 12, 24 and 48 h post TPA treatment. The epidermis was separated from the whole skin and homogenized in 0.1 M Tris-HCl buffer (pH 7.2) using a Polytron tissue homogenizer (Brinkmann Instruments, Westbury, N.Y., USA) at 100,000×g supernatant, and microsomal fractions were prepared as described earlier (Katiyar and Mukhtar, 1997). The sample of 6 h treatment group was used to assess the ODC activity as this time point has previously been shown for optimal induction of the enzyme (Katiyar er al., 1996).
as §2, with “USA). The homogenate was then centrifuged at 14,000×g for 25 minutes at 4° C. and the supernatant (total cell lysate) was collected, aliquoted and stored at −80° C. For the preparation of nuclear lysate, 0.2 g of the epidermis was homogenized in 1 ml of ice-cold phosphate-buffered saline (pH 7.6) and centrifuged at 12,000×g for 5 min at 4° C.” for “USA).”
as §3

AsPC-1 cells = assay: Viability of AsPC-1 cells, MTT assay; type: cell-based; conditions: Lupeol for 24-72 hours
Description: FIG. 20 depicts effect of Lupeol on viability of AsPC-1 cells. The cells were treated with specified concentrations of Lupeol for 24, 48 and 72 h, and cell viability was determined by MTT assay.

[1] = test system: Fas receptor, FADD and other death receptors in LNCaP cells; assay: Death receptor mediated apoptotic pathway in LNCaP cells (western blot); type: cell-based, human
Description: FIG. 14 depicts effect of Lupeol treatment on death receptor mediated apoptotic pathway in LNCaP cells: Cells were treated with vehicle (DMSO+alcohol) only or specified concentrations of Lupeol for 48 h, harvested and total cell lysates were prepared. The expression of death receptors including Fas and death adaptor proteins including FADD were determined by western blot analysis. Equal loading was confirmed by stripping immunoblots and reprobing them for β-actin. The immunoblots shown here are representative of three independent experiments with similar results.

Q: `C=C(C)[C@@H]1CC[C@]2(C)CC[C@]3(C)[C@H](CC[C@@H]4[C@@]5(C)CC[C@H](O)C(C)(C)[C@@H]5CC[C@]43C)[C@@H]12` [Lupeol, Lup-20(29)-en-3β-ol] was tested. Which “epidermal ODC protein expression after Lupeol alone” value (epidermal ODC protein; Lupeol alone up to 2 mg/animal) did it give?
A: Its value is “without any effect on enzyme level”.

Q: What about the “inhibition of TPA-caused induction of epidermal ODC protein expression (densitometry)” value (epidermal ODC protein; Lupeol-pretreated animals, 1 or 2 mg, all time points) of the same molecule?
A: Its value is 50-70%.

Q: And the “inhibition in TPA-caused increased epidermal COX-2 protein expression” value (epidermal COX-2 protein; Lupeol 1 mg/animal)?
A: Its value is 40%.

Q: What about the “TPA-induced COX-2 protein level” value (epidermal COX-2 protein; Lupeol 2 mg/animal) of the same molecule?
A: The value was “restored the level of TPA-induced COX-2 protein almost to its basal level”.

Q: And the “epidermal COX-2 protein expression after Lupeol alone” value (epidermal COX-2 protein; Lupeol alone 2 mg)?
A: Its value is “did not produce any change”.

Q: What about the “cell death of ASPC-1 cells” value (AsPC-1 cells) of the same molecule?
A: Its value is “highly significant dose dependent cell death”.

Q: What about the “expression of cell death-inducing receptor ligands FAS-L, APO-3L and TRAIL” value [1] of the same molecule?
A: The value was “no significant change”.

Q: What about the “expression/activation of other death receptors (TRADD, TNFR-1, APO-3, DR-4/5)” value [1] of the same molecule?
A: Its value is “no change in the protein expression; also recorded: No other death receptor such as TNFR1, DR4/5 were activated”.

Q: And the “expression of FADD protein” value ([1]; 48 h)?
A: Its value is “increase in the expression of FADD protein; also recorded: induces the expression”.

Q: What about the “expression of FAS receptor protein” value ([1]; 48 h) of the same molecule?
A: The value was “significant increase; also recorded: induces the expression”.
